Common to all, as to test: inhibition of tumour cell growth, NCI panel, 48 h
Assay [1] has as its system SR leukemia.
The test system of assay [2] is T-47D breast.
The subject of assay [3] is MDA-N.
Assay [4] concerns RPMI-8226 leukemia.
The subject of assay [5] is KM12 colon.
The test system of assay [6] is DU-145 prostate.
In assay [7] the test system is CCRF-CEM leukemia.
Assay [8] has as its system M14 melanoma.
Assay [9] deals with OVCAR-5 ovarian.
Assay [10] relates to NCI-H460 lung.
In assay [11] the test system is MALME-3M melanoma.
Assay [12] relates to A498 renal.
Assay [13] has as its system COLO 205 colon.
Assay [14] concerns PC-3 prostate.
In assay [15] the test system is SF-539 CNS.
In assay [16] the test system is MDA-MB-231 breast.
Assay [17] deals with NCI-H522 lung.
The subject of assay [18] is HCT-15 colon.
Assay [19] has as its system NCI/ADR-RES ovarian.
Assay [20] concerns UACC-62 melanoma.

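96-well plates; 48 h exposure; 5 concentrations. Endpoints by linear interpolation between flanking doses. Not reached: highest tested concentration assigned. TGI: total growth inhibition.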

Results on 15 molecules are retold here after PubChem BioAssay (NCI).

With `CC(C)(C)C(=O)C(C(=O)C(C)(C)C)C(=O)C(C)(C)C`, the TGI in assay [1], in assay [2], in assay [3], in assay [4], in assay [5] and in assay [6] was greater than 100 µM each time. The TGI in [7], in assay [8], in [9], in assay [10], in assay [11] and in assay [12] was greater than 100 µM in each case. Also, the TGI in [13], in [14], in assay [15], in assay [16], in assay [17] and in assay [18] was greater than 100 µM throughout. Also, the TGI in assay [19] was greater than 100 µM.

In the case of `C=CCN1C(=O)/C(=C/c2ccc(OC)cc2)NC1=S`, the TGI in assay [1], in assay [2], in assay [3], in assay [4], in assay [5] and in assay [6] was greater than 100 µM each time. Also, the TGI in assay [7] is 13.1 µM; in [8], greater than 100 µM; in assay [9], greater than 100 µM; in assay [10] it was greater than 100 µM; in assay [20], greater than 100 µM; in [12] it was greater than 100 µM. Further, the TGI in assay [13], in [14], in assay [15], in assay [16], in assay [17] and in assay [18] was greater than 100 µM in each case. Further, the TGI in assay [19] is greater than 100 µM.

As for `CCOP(=O)(CCCC(O)CNc1cc(Cl)nc(N)n1)OCC` (stereo unspecified), the TGI in assay [1], in [2], in assay [3], in [4], in [5] and in [6] was greater than 100 µM each time. For the same molecule, the TGI in assay [7], in [9], in assay [10], in assay [20], in assay [11] and in [12] was greater than 100 µM throughout. Moreover, the TGI in [13], in assay [14], in [15], in assay [16], in assay [17] and in assay [18] was greater than 100 µM in each case. The molecule further yielded a TGI in assay [19] greater than 100 µM.

For `COc1ccc2nc3ccc(OC)cc3c(SCc3ccc([N+](=O)[O-])cc3)c2c1`, the TGI in [1], in assay [2], in [3], in assay [5], in assay [6] and in assay [7] was greater than 100 µM throughout. The TGI in [8], in [9], in [10], in assay [20], in assay [11] and in [12] was greater than 100 µM each time. For the same molecule, the TGI in [13], in [14], in assay [15], in assay [16], in assay [17] and in [18] was greater than 100 µM in each case. In assay [19], this molecule gave a TGI greater than 100 µM.

For `COc1ccc(C2CC(c3ccccc3)=Nc3c(-c4ccccc4)nnn32)cc1` (stereo unspecified), the TGI in [1] was greater than 100 µM; in assay [2], 59.6 µM; in assay [3], greater than 100 µM; in [4], 82.6 µM; in assay [5] it was greater than 100 µM; in assay [6], greater than 100 µM. Moreover, the TGI in assay [7], in assay [8], in assay [9], in assay [10], in assay [20] and in assay [12] was greater than 100 µM in each case. In addition, the TGI in assay [13] was greater than 100 µM; in [14] it was greater than 100 µM; in [15], greater than 100 µM; in assay [16], greater than 100 µM; in [17], 69.3 µM; in [18], greater than 100 µM. The molecule further had a TGI in assay [19] greater than 100 µM.

Consider `COc1cc(/C=C2\C[C@H]3[C@@H]4CC=C5C=C(N6CCCC6)CC[C@]5(C)[C@H]4CC[C@]3(C)C2=O)cc(OC)c1OC`, for which the TGI in [1] was greater than 100 µM; in [2], 11.1 µM; in assay [3] it was 4.2 µM; in assay [4] it was greater than 28 µM; in assay [5], 4.37 µM; in assay [6] it was 12.8 µM. Besides, the TGI was greater than 100 µM in assay [7]; 5.37 µM in assay [8]; 30.8 µM in [9]; 5.46 µM in assay [20]; 5.61 µM in assay [11]; 21 µM in [12]. The TGI in assay [13] is 10.7 µM; in assay [14], 15.2 µM; in assay [15], 12.5 µM; in assay [16], 6.62 µM; in assay [17], 2.88 µM; in [18], 6.53 µM. The molecule further yielded a TGI in assay [19] greater than 23.3 µM.

As to `CC(=O)OCC1OC(n2c(-c3ccccc3)c(C(C)=O)c(-c3ccc(Cl)cc3)c(C#N)c2=S)C(OC(C)=O)C(OC(C)=O)C1OC(C)=O` (stereo unspecified), the TGI in [1], in assay [2], in [3], in assay [5], in assay [6] and in [7] was greater than 100 µM throughout. Moreover, the TGI in [8], in [9], in [10], in [20], in assay [11] and in assay [12] was greater than 100 µM throughout. Further, the TGI in assay [13] was greater than 100 µM; in [14], 8.46 µM; in [15], greater than 100 µM; in assay [16] it was greater than 100 µM; in assay [17], greater than 100 µM; in assay [18] it was greater than 100 µM. This molecule also registered a TGI in assay [19] greater than 100 µM.

Consider `OC1(c2ccccc2)CC2CCC(C1)N2CCCC1(c2ccc(F)cc2)OCCO1` (stereo unspecified), for which the TGI in assay [1], in [2], in assay [3], in [4], in [6] and in assay [7] was greater than 100 µM each time. In addition, the TGI was 44.9 µM in [8]; greater than 100 µM in assay [9]; greater than 100 µM in [20]; greater than 100 µM in assay [11]; greater than 100 µM in assay [12]; greater than 100 µM in assay [13]. Besides, the TGI in [14] is greater than 100 µM; in [15], greater than 100 µM; in assay [16], greater than 100 µM; in assay [17] it was greater than 100 µM; in assay [18], greater than 100 µM; in assay [19], 29.1 µM.

On to `O=C(CC(C(=O)c1cccs1)c1ccsc1)c1cccs1` (stereo unspecified), for which the TGI was greater than 100 µM in assay [1]; greater than 100 µM in assay [2]; 80.5 µM in assay [3]; greater than 100 µM in assay [5]; greater than 100 µM in [6]; greater than 100 µM in [7]. The TGI in assay [9], in assay [10], in [20], in [11], in assay [12] and in assay [13] was greater than 100 µM throughout. Also, the TGI in assay [14], in [15], in assay [16], in [17], in [18] and in [19] was greater than 100 µM in each case.

Regarding `CS/C1=C(\c2ccc(C)cc2)N(c2ccccc2)C(=O)C(=O)N(c2ccccc2)/C(c2ccc(C)cc2)=C(/SC)SS1`, the TGI in assay [1], in [2], in [3], in assay [4], in assay [6] and in [7] was greater than 100 µM throughout. In addition, the TGI in assay [8], in [9], in assay [10], in assay [20], in assay [11] and in [12] was greater than 100 µM each time. Further, the TGI in [13], in [14], in assay [15], in assay [16], in assay [17] and in [18] was greater than 100 µM in each case. In addition, the TGI in assay [19] was greater than 100 µM.

For the molecule `CCOC(=O)C(/C=N\C(=S)Nc1ccc(Cl)c(Cl)c1)=C(/O)c1ccccc1`, the TGI in assay [1], in assay [2], in [3], in [5], in assay [6] and in assay [7] was greater than 100 µM throughout. Besides, the TGI was greater than 100 µM in assay [8]; greater than 100 µM in [9]; greater than 100 µM in [10]; greater than 100 µM in assay [20]; greater than 100 µM in assay [11]; 20.4 µM in assay [12]. Further, the TGI in assay [13] was greater than 100 µM; in assay [14], greater than 100 µM; in assay [16] it was 90.9 µM; in [17], 26.1 µM; in [18], greater than 100 µM; in assay [19], greater than 100 µM.

On to `COc1cc(OC)c2c(=O)cc(-c3ccccc3F)[nH]c2c1`, for which the TGI in assay [1], in assay [2], in [3], in assay [4], in [5] and in assay [6] was greater than 100 µM each time. For the same molecule, the TGI in assay [7], in [8], in assay [9], in [10], in assay [20] and in assay [11] was greater than 100 µM each time. Also, the TGI in [12], in assay [13], in assay [14], in assay [16], in assay [17] and in [18] was greater than 100 µM throughout. This molecule also came in with a TGI in assay [19] greater than 100 µM.

On to `CCN1CCN(c2ccc(Nc3ccnc4ccc5c(nnn5C)c34)cc2)CC1`, for which the TGI was found to be 15.8 µM in assay [1]; 38.3 µM in assay [2]; 14.4 µM in assay [3]; 12.4 µM in assay [5]; 18.3 µM in [6]; 54.7 µM in assay [7]. For the same molecule, the TGI worked out at 23.9 µM in assay [8]; 24.2 µM in assay [9]; 11.9 µM in assay [10]; 27.1 µM in assay [20]; 23.6 µM in assay [11]; 29.5 µM in assay [12]. In addition, the TGI in assay [13] was 15.4 µM; in [14], 17.7 µM; in assay [15] it was 11.1 µM; in [16] it was 27.2 µM; in assay [17], 6.21 µM; in [18], 16.4 µM. The molecule further displayed a TGI in assay [19] of 36.7 µM.

Take `COc1ccc(-c2c(=O)[nH]n3c(=S)nc(-c4ccccc4)[nH]c23)cc1OC`: the TGI turned out to be 24.2 µM in [1]; 42.6 µM in assay [2]; 28.3 µM in assay [3]; 35.8 µM in assay [5]; 52.3 µM in [6]; 31.1 µM in [7]. The TGI is 38 µM in [8]; 47.3 µM in [9]; greater than 100 µM in assay [10]; 39.8 µM in [20]; 40.7 µM in assay [11]; 33.1 µM in [12]. Further, the TGI in assay [13] came to 31.3 µM; in assay [14], 90.7 µM; in assay [16], 97.8 µM; in assay [17] it was 37.9 µM; in assay [18] it was 41.6 µM; in assay [19], 55.7 µM.

With `O=C1CC(O)c2c(Br)sc(Br)c21` (stereo unspecified), the TGI in assay [1] was 29.6 µM; in assay [2], 30.5 µM; in [3], 22.5 µM; in assay [4] it was 11.8 µM; in assay [5], 20.8 µM; in [6] it was 22.2 µM. The TGI in assay [8] came to 28.8 µM; in assay [9], 38.6 µM; in [10], 34.8 µM; in assay [20], 26.3 µM; in assay [11], 32.9 µM; in assay [12] it was 39.6 µM. Moreover, the TGI in [13] turned out to be 31 µM; in [14], 25.9 µM; in [15], 21.5 µM; in [16], 29.9 µM; in assay [17], 29.4 µM; in assay [18], 43 µM. Besides, the TGI in assay [19] is greater than 100 µM.
